Laboratory results from ChEMBL document CHEMBL4020826 (J Med Chem, 2018).

Tests used:
Rattus norvegicus [1] = experiment: Toxicity in Sprague-Dawley rat assessed as reduction in spontaneous locomotive activity at 30 mg/kg, sc after 30 mins; type: organism-based; parameters: scale not given: the % may be the effect or the level left; details: in vivo, 0.5 h
Rattus norvegicus [2] = species: Rattus norvegicus; experiment: Drug metabolism in Sprague-Dawley rat assessed as (1S,2S,4S,5R,6S)-di-tert-butyl 4-amino-2-(tert-butoxycarbonylamino)bicyclo[3.1.0]hexane-2,6-dicarboxylate formation measured over 24 hrs; type: ADME
[3] = Half life in Sprague-Dawley rat at 1 mg/kg, iv measured over 8 hrs by LC-MS/MS analysis; type: ADME, organism-based; details: in vivo
[4] = Plasma concentration in Sprague-Dawley rat at 15 mg/kg/day, sc administered via infusion measured after 6 hrs post dose by LC-MS/MS analysis; type: ADME, organism-based
[5] = Half life in Sprague-Dawley rat at 3 mg/kg, sc measured over 8 hrs by LC-MS/MS analysis; type: ADME, organism-based; details: in vivo
[6] = Cmax in Sprague-Dawley rat at 3 mg/kg, sc measured over 8 hrs by LC-MS/MS analysis; type: ADME, organism-based; parameters: dose 3 mg/kg, route subcutaneous; details: in vivo
[7] = target: T1, Metabotropic glutamate receptor 4 (Homo sapiens, UniProt Q14833); experiment: Antagonist activity at recombinant human mGlu4 receptor expressed in hamster AV12 cells co-expressing rat EAAT1/Galpha15 assessed as inhibition of glutamate induced increase in Ca2+ flux after 2.5 mins by Fluo-3 AM dye-based FLIPR assay; type: functional, cell-based
Rattus norvegicus [8] = species: Rattus norvegicus; experiment: Drug metabolism in Sprague-Dawley rat assessed as (1S,2S,4S,5R,6S)-2-Amino-4-[(3-hydroxybenzoyl)amino]-bicyclo[3.1.0]hexane-2,6-dicarboxylic Acid formation measured over 24 hrs; type: ADME
[9] = Tmax in Sprague-Dawley rat at 3 mg/kg, sc measured over 8 hrs by LC-MS/MS analysis; type: ADME, organism-based; details: in vivo
[10] = target: Metabotropic glutamate receptor 2 (Homo sapiens, UniProt Q14416); experiment: Agonist activity at recombinant human mGlu2 receptor expressed in hamster AV12 cells co-expressing rat EAAT1/Galpha15 assessed as induction of increase in Ca2+ flux after 2.5 mins by Fluo-3 AM dye-based FLIPR assay
[11] = Plasma concentration in Sprague-Dawley rat at 1.5 mg/kg/day, sc administered via infusion measured after 24 hrs post dose by LC-MS/MS analysis; type: ADME, organism-based
[12] = Plasma concentration in Sprague-Dawley rat at 15 mg/kg/day, sc administered via infusion measured after 48 hrs post dose by LC-MS/MS analysis; type: ADME, organism-based
[13] = AUC in Sprague-Dawley rat at 1 mg/kg, iv measured over 8 hrs by LC-MS/MS analysis; type: ADME, organism-based; parameters: time < 8 hr, dose 1 mg/kg, route intravenous; details: in vivo
[14] = Plasma concentration in Sprague-Dawley rat at 0.5 mg/kg/day, sc administered via infusion measured after 6 hrs post dose by LC-MS/MS analysis; type: ADME, organism-based
[15] = Plasma concentration in Sprague-Dawley rat at 0.1 mg/kg, sc administered as single dose measured after 1 hr post dose by LC-MS/MS analysis; type: ADME, organism-based
[16] = Plasma concentration in Sprague-Dawley rat at 0.3 mg/kg, sc administered as single dose measured after 1 hr post dose by LC-MS/MS analysis; type: ADME, organism-based
[17] = target: Metabotropic glutamate receptor 5 (Homo sapiens, UniProt P41594); experiment: Agonist activity at recombinant human mGlu5 receptor expressed in hamster AV12 cells co-expressing rat EAAT1/Galpha15 assessed as induction of increase in Ca2+ flux after 2.5 mins by Fluo-3 AM dye-based FLIPR assay; type: functional, cell-based
[18] = Drug level in Sprague-Dawley rat CSF at 0.5 mg/kg/day, sc administered via infusion measured after 72 hrs post dose by LC-MS/MS analysis; type: ADME, organism-based, Cerebrospinal fluid; details: read-out: Drug uptake
[19] = target: T2, Metabotropic glutamate receptor 8 (Homo sapiens, UniProt O00222); experiment: Antagonist activity at recombinant human mGlu8 receptor expressed in hamster AV12 cells co-expressing rat EAAT1/Galpha15 assessed as inhibition of glutamate induced increase in Ca2+ flux after 2.5 mins by Fluo-3 AM dye-based FLIPR assay; type: functional, cell-based
[20] = target: T2, Metabotropic glutamate receptor 8; experiment: Agonist activity at recombinant human mGlu8 receptor expressed in hamster AV12 cells co-expressing rat EAAT1/Galpha15 assessed as induction of increase in Ca2+ flux after 2.5 mins by Fluo-3 AM dye-based FLIPR assay; type: functional, cell-based
[21] = Plasma concentration in Sprague-Dawley rat at 15 mg/kg/day, sc administered via infusion measured after 12 hrs post dose by LC-MS/MS analysis; type: ADME, organism-based
[22] = target: T1, Metabotropic glutamate receptor 4; experiment: Agonist activity at recombinant human mGlu4 receptor expressed in hamster AV12 cells co-expressing rat EAAT1/Galpha15 assessed as induction of increase in Ca2+ flux after 2.5 mins by Fluo-3 AM dye-based FLIPR assay; type: functional, cell-based
[23] = Plasma concentration in Sprague-Dawley rat at 1.5 mg/kg/day, sc administered via infusion measured after 72 hrs post dose by LC-MS/MS analysis; type: ADME, organism-based
[24] = Plasma concentration in Sprague-Dawley rat at 0.5 mg/kg/day, sc administered via infusion measured after 48 hrs post dose by LC-MS/MS analysis; type: ADME, organism-based
[25] = Aqueous solubility of the compound at pH 7.4; type: physicochemical; details: buffer
Rattus norvegicus [26] = experiment: Toxicity in Sprague-Dawley rat assessed as reduction in spontaneous locomotive activity at 30 mg/kg, sc after 90 mins; type: organism-based; parameters: scale not given: the % may be the effect or the level left; details: in vivo, 1.5 h
[27] = Drug level in Sprague-Dawley rat CSF at 1 mg/kg, sc administered as single dose measured after 1 hr post dose by LC-MS/MS analysis; type: ADME, organism-based, Cerebrospinal fluid; details: read-out: Drug uptake
[28] = Plasma concentration in Sprague-Dawley rat at 0.5 mg/kg/day, sc administered via infusion measured after 72 hrs post dose by LC-MS/MS analysis; type: ADME, organism-based
[29] = target: Metabotropic glutamate receptor 7 (Homo sapiens, UniProt Q14831); experiment: Agonist activity at recombinant human mGlu7 receptor expressed in hamster AV12 cells co-expressing rat EAAT1/Galpha15 assessed as induction of increase in Ca2+ flux after 2.5 mins by Fluo-3 AM dye-based FLIPR assay; type: functional, cell-based
[30] = Drug level in Sprague-Dawley rat CSF at 15 mg/kg/day, sc administered via infusion measured after 72 hrs post dose by LC-MS/MS analysis; type: ADME, organism-based, Cerebrospinal fluid; details: read-out: Drug uptake
[31] = Drug level in Sprague-Dawley rat CSF at 0.3 mg/kg, sc administered as single dose measured after 1 hr post dose by LC-MS/MS analysis; type: ADME, organism-based, Cerebrospinal fluid; details: read-out: Drug uptake
[32] = Drug metabolism in dog liver microsomes at 4 uM; type: ADME, Canis lupus familiaris, microsome; details: read-out: Drug metabolism
[33] = Drug metabolism in mouse liver microsomes at 4 uM; type: ADME, microsome; details: read-out: Drug metabolism
[34] = Fraction unbound in rat plasma; type: ADME, cell-free
[35] = Cmax in Sprague-Dawley rat at 1 mg/kg, iv measured over 8 hrs by LC-MS/MS analysis; type: ADME, organism-based; parameters: dose 1 mg/kg, route intravenous; details: in vivo
[36] = target: Metabotropic glutamate receptor 1 (Homo sapiens, UniProt Q13255); experiment: Antagonist activity at recombinant human mGlu1 receptor expressed in hamster AV12 cells co-expressing rat EAAT1/Galpha15 assessed as inhibition of glutamate induced increase in Ca2+ flux after 2.5 mins by Fluo-3 AM dye-based FLIPR assay; type: functional, cell-based
[37] = Bioavailability in Sprague-Dawley rat at 3 mg/kg, sc measured over 8 hrs by LC-MS/MS analysis; type: ADME, organism-based; details: in vivo
[38] = Plasma concentration in Sprague-Dawley rat at 5 mg/kg/day, sc administered via infusion measured after 24 hrs post dose by LC-MS/MS analysis; type: ADME, organism-based

T2 sequence (O00222 whole entry): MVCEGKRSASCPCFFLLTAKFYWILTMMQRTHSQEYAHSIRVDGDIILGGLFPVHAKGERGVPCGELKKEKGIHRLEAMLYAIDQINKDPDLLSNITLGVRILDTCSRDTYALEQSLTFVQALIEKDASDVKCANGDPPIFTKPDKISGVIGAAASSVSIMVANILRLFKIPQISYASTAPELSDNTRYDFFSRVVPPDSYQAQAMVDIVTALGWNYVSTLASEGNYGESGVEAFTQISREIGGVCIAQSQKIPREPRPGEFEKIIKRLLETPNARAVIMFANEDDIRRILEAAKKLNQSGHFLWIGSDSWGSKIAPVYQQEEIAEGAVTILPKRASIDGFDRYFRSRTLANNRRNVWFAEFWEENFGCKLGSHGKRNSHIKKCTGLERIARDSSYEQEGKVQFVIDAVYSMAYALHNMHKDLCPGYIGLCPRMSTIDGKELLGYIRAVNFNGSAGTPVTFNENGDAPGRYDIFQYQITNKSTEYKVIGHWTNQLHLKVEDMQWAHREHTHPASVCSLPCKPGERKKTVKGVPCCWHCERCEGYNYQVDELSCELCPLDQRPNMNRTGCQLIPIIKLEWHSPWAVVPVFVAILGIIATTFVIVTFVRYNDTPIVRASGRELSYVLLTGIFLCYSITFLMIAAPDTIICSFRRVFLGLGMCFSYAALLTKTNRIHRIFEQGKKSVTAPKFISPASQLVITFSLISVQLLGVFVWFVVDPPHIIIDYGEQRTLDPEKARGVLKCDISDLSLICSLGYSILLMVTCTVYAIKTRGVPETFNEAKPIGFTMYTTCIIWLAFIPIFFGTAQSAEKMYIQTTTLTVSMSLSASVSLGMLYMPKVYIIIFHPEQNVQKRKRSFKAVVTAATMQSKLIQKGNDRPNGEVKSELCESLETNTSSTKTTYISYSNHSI
T1 sequence (Q14833 whole entry): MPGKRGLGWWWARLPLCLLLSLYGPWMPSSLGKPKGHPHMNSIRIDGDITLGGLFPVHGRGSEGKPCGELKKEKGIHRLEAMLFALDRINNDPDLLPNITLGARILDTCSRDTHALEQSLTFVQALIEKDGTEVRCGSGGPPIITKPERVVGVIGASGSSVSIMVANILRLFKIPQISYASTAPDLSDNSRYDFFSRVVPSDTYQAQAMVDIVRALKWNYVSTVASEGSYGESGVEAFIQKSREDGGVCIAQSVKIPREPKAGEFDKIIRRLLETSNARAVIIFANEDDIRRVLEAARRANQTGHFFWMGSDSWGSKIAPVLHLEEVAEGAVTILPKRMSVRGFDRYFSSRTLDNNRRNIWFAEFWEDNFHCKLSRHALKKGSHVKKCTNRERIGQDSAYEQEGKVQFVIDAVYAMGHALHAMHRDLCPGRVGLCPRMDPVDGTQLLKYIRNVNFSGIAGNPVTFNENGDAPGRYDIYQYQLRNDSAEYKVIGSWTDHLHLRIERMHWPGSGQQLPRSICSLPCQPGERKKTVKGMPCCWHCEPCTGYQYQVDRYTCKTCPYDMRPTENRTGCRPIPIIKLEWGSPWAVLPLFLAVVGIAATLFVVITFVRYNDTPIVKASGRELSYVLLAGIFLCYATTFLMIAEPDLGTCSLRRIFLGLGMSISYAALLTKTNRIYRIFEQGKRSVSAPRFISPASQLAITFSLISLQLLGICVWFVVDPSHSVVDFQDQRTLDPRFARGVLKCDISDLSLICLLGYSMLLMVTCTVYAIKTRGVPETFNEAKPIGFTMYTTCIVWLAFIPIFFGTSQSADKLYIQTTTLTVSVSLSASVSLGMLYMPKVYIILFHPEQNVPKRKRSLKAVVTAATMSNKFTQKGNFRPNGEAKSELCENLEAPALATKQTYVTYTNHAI
Sequence of Metabotropic glutamate receptor 5 (P41594 whole entry, the tested form may be a part): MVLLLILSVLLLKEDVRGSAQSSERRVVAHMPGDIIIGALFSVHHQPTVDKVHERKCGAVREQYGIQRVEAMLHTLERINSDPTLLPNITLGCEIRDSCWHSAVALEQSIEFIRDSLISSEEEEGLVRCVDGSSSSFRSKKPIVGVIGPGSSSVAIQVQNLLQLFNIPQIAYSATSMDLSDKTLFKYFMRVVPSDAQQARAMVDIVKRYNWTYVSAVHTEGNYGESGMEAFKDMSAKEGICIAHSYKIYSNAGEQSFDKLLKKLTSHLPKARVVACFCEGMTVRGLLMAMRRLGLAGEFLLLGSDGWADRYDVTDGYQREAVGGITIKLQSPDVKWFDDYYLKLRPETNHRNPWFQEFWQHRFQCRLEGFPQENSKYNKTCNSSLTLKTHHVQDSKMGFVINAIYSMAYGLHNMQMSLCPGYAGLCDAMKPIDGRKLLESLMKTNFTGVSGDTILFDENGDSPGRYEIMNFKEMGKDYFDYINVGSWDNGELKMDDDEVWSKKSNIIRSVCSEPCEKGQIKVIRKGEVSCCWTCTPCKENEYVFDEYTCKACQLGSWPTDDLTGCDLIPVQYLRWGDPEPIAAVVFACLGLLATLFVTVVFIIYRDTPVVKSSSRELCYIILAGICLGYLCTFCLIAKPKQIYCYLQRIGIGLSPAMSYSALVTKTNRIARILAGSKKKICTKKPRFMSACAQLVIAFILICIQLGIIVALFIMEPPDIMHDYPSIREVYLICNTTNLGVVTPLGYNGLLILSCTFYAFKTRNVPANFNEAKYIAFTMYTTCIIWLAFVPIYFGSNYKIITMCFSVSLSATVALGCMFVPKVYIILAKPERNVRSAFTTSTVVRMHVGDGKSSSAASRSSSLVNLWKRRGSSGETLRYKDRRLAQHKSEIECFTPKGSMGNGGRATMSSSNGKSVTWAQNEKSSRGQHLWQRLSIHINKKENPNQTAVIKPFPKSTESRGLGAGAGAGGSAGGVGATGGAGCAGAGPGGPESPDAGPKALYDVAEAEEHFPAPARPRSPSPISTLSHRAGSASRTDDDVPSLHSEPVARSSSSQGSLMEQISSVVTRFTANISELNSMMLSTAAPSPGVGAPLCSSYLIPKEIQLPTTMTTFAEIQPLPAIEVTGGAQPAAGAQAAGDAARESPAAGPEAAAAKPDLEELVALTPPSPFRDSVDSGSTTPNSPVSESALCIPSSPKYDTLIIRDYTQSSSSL
Sequence of Metabotropic glutamate receptor 2 (Q14416 whole entry, the tested form may be a part): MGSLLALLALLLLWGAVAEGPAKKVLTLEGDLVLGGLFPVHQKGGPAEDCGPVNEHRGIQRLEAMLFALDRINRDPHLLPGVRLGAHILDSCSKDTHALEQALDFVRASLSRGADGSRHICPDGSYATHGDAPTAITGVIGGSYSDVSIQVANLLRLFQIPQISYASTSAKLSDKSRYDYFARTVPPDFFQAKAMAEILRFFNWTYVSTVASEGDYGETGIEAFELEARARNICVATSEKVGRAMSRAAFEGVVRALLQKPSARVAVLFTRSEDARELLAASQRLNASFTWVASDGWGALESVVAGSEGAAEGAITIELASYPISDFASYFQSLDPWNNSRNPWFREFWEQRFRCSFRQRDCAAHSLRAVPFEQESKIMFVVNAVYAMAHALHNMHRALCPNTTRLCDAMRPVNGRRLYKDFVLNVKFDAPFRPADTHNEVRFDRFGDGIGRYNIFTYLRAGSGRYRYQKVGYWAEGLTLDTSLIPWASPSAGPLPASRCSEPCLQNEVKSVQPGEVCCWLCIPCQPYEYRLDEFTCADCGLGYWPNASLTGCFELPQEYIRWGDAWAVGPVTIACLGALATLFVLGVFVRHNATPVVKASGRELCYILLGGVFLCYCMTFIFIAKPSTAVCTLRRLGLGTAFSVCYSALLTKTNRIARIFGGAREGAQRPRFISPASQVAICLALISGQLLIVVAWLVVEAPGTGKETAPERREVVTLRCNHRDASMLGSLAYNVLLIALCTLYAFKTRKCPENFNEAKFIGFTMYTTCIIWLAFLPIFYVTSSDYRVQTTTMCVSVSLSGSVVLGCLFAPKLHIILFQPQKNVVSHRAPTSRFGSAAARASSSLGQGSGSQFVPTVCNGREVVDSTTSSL
Sequence of Metabotropic glutamate receptor 1 (Q13255 whole entry): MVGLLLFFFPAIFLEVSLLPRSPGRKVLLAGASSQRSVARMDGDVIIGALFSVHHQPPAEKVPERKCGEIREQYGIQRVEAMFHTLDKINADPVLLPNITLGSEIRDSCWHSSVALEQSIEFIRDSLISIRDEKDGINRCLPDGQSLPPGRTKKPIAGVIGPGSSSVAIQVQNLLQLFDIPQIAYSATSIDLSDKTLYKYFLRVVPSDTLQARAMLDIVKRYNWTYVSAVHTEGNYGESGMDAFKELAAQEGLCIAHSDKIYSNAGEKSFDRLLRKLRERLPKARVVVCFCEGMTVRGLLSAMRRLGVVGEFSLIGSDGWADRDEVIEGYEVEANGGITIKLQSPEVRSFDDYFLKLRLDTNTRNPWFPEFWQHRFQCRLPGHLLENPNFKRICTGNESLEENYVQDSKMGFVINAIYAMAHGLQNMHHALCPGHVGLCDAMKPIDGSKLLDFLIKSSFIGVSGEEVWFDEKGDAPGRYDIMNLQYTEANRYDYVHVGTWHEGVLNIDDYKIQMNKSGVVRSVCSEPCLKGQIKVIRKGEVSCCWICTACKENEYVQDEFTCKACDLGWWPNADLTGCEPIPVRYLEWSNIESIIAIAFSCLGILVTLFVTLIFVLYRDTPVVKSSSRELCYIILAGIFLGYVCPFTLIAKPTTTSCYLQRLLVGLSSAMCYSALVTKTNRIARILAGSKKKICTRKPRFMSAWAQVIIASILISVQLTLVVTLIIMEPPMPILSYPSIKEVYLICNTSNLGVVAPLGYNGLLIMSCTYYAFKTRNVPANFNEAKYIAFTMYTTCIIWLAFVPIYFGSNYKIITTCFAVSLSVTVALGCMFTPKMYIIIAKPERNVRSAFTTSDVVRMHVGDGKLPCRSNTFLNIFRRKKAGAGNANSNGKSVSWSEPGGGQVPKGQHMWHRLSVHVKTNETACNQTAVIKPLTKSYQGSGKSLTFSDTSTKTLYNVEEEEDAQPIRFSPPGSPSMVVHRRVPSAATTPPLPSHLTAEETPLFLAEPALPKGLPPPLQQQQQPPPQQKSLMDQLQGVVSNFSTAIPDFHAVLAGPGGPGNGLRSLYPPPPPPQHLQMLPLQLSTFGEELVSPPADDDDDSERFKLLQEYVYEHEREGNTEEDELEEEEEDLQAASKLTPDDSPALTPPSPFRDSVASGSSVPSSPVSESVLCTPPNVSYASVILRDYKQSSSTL

Question: Which results are given for `COc1cccc(C(=O)N[C@H]2C[C@@](N)(C(=O)O)[C@@H]3[C@@H](C(=O)O)[C@@H]32)c1`?
Answer: Activity (Rattus norvegicus [1]): 32%; Drug metabolism (Rattus norvegicus [2]): < 2.5 nM; half-life [3]: 3.1 h; concentration at 6 h [4]: 3840 nM; half-life [5]: 2.9 h; Cmax [6]: 6780 nM; IC50 [7]: > 12.5 µM; Drug metabolism (Rattus norvegicus [8]): < 2.5 nM; Tmax [9]: 0.44 h; EC50 [10]: 0.277 µM; concentration at 24 h [11]: 403 nM; concentration at 48 h [12]: 2130 nM; AUC at 8 h [13]: 2.75 µM·h; concentration at 6 h [14]: 156 nM; concentration at 1 h [15]: 286 nM; concentration at 1 h [16]: 771 nM; EC50 [17]: > 25 µM; concentration at 72 h [18]: < 7.5 nM; IC50 [19]: > 12.5 µM; EC50 [20]: > 25 µM; concentration at 12 h [21]: 3070 nM; EC50 [22]: 11.8 µM; concentration at 72 h [23]: 361 nM; concentration at 48 h [24]: 95.1 nM; solubility [25]: > 100 µM; Activity (Rattus norvegicus [26]): 36%; concentration at 1 h [27]: 12.5 to 22.5 nM; concentration at 72 h [28]: 91.2 nM; EC50 [29]: > 25 µM; concentration at 72 h [30]: 86.7 nM; concentration at 1 h [31]: 6.91 nM; metabolised at 4 µM [32]: 28.9%; metabolised at 4 µM [33]: 11.5%; fraction unbound [34]: 1; Cmax [35]: 6390 nM; IC50 [36]: > 12.5 µM; bioavailability [37]: 121%; concentration at 24 h [38]: 1300 nM
